Columns and labels:
Type in all cases: functional, cell-based
MDA-MB-231 = test: Cytotoxicity against human MDA-MB-231 cells by WST-1 assay
MCF7 [1] = test: Cytotoxicity against human tamoxifen-resistant MCF7 cells by WST-1 assay
MCF7 [2] = test: Cytotoxicity against human MCF7 cells by WST-1 assay
[3] = Cytotoxicity against human MCF7/ADR cells by WST-1 assay; details: NCI/ADR-RES

Q: For `CC(=O)OC[C@@]1(C)CCC[C@]2(C)[C@@H]1C[C@@H](O)[C@@]13C[C@H](CC[C@@H]21)[C@@](O)(CC[C@@]1(O)C(=O)[C@]24C[C@@H]1CC[C@H]2[C@]1(C)CCC[C@](C)(COC(C)=O)[C@H]1C[C@H]4O)C3=O` [CROTONKINENSIN D], which IC50 (MDA-MB-231) is on record?
A: 22 µM

Q: What about the IC50 (MCF7 [1]) of the same compound?
A: 2.6 µM

Q: And the IC50 (MCF7 [2])?
A: 9.4 µM

Q: What about the IC50 [3] of the same compound?
A: 18.9 µM

Q: Which IC50 [3] does the source give for `COc1cccc2c1C(=O)c1c(O)c3c(c(O)c1C2=O)C[C@@](O)(C(=O)CO)C[C@@H]3O[C@H]1C[C@H](N)[C@H](O)[C@H](C)O1` [DOXORUBICIN] here?
A: 83.2 µM

Q: With `C[C@]1(CO)CCC[C@]2(C)[C@@H]1C[C@@H](O)[C@@]13C[C@H](CC[C@@H]21)[C@@](O)(CC[C@@]1(O)C(=O)[C@]24C[C@@H]1CC[C@H]2[C@]1(C)CCC[C@](C)(CO)[C@H]1C[C@H]4O)C3=O` [CROTONKINENSIN C] as the compound, how does the IC50 (MDA-MB-231) read?
A: > 30 µM

Q: What about the IC50 (MCF7 [1]) of the same compound?
A: > 30 µM

Q: And the IC50 (MCF7 [2])?
A: > 30 µM

Q: What about the IC50 [3] of the same compound?
A: > 30 µM

Q: What does the source list for `CC[C@@]1(O)C(=O)OCc2c1cc1n(c2=O)Cc2cc3ccccc3nc2-1` [CAMPTOTHECIN]?
A: IC50 (MDA-MB-231): 2.7 µM; IC50 (MCF7 [1]): 1.8 µM; IC50 (MCF7 [2]): 2.6 µM; IC50 [3]: 0.8 µM

— ChEMBL document CHEMBL1938248, “Symmetric dimers of ent-kaurane diterpenoids with cytotoxic activity from Croton tonkinensis” (Bioorg Med Chem Lett, 2012)
